Test results: patent publication US20120322060A1, “DIAGNOSIS AND MONITORING TREATMENT OF PSYCHIATRIC DISEASES WITH SPADIN AND RELATED METHODS” (CENTRE NATIONAL DE LE RECHERCHE SCIENTIFIQUE - CNRS -, priority 2011, published 2012)
“Also recorded” adds a separate entry of the source. No end group written: not given here.

How the values were obtained:
[1] = system: dentate gyrus of the mouse hippocampus; assay: Hippocampal neurogenesis (BrdU / DCX labeling); assay type: in vivo
Experimental: Twenty-four hours after the injection of BrdU (120 mg per kg of body weight in a 300 μl bolus), mice were euthanized and transcardially perfused with 4% cold paraformaldehyde. Serial sections of the brains were cut (40 μm) throughout the entire hippocampus on a vibratome (Leica). Every sixth section throughout the hippocampus was processed for BrdU or doublecortin (DCX) immunohistochemistry, as previously described. For each immunodetection, slides were first incubated overnight at 4° C. with a mouse monoclonal anti-BrdU antibody (1:200; Becton-Dickinson) or a goat anti-DCX (1:400, Santa Cruz Laboratories). For chromogenic immunodetection, sections were then incubated for 1 hour in biotin-conjugated species-specific secondary antibodies (1:100; Vector Laboratories) followed by a peroxidase-avidin complex solution according to the manufacturer's protocol. The peroxidase activity of immune complexes was visualized with DAB staining using the VectaStain ABC kit (Vector Laboratories). For fluorescent double-labeling, performed to determine the cell phenotype, sections were incubated overnight at 4° C. with anti-sheep BrdU (1:200, Interchim), anti-goat DCX (1:200, Santa Cruz Laboratories), or an anti-GFAP (Glial Fibrillary acidic protein, marker for astrocytes, 1:250, Dako). […] All BrdU-labeled cells in the granular cell layer and subgranular zone (SGZ) were counted in each section (n=10 and 5 mice per group) at 400× and 1000× magnification under a light microscope (Olympus) by an experimenter blinded to the study code. The total number of BrdU-positive cells per section was multiplied by 6 to obtain the total number of cells per dentate gyrus. The counting of BrdU/DCX labeled cells was performed using a Laser Scanning Confocal Microscope (TCS SP, Leica) equipped with a DMIRBE inverted microscope.

mice [2] = assay: Porsolt Forced Swim Test (FST) in mice; assay type: in vivo, mouse
Experimental: Mice (Janvier, France) were placed individually in cylinders (height: 30 cm, diameter: 15 cm) filled with 12 cm deep water (temperature: 22±1° C.) for 6 min. The total period of immobility was recorded during the last 4 min.

TREK-1 [3] = biological target: T1, TREK-1 (Mus musculus, UniProt P97438); assay: Whole-cell patch-clamp on cultured pyramidal neurons from hippocampus; assay type: cell-based; parameters: endogenous in cells; host or cells: primary hippocampal pyramidal neurons from newborn mice; conditions: 20 μM fluoxetine
T1 sequence (P97438 1-426): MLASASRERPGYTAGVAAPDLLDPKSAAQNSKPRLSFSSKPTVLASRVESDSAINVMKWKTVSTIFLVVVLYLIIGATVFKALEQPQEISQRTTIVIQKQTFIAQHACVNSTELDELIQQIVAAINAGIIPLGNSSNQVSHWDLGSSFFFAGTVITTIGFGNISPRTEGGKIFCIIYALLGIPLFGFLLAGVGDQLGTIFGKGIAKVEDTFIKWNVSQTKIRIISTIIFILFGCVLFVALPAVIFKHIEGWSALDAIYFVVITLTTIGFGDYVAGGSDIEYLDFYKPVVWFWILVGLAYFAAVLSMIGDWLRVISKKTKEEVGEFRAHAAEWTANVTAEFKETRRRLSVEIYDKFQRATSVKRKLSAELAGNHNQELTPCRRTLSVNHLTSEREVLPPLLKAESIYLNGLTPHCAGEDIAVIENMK
Experimental: A, Cultured pyramidal neuron from hippocampus, with on top, the patch-clamp pipette. Neurons were chosen according to their morphology. B, Current recorded in response to ramps of potential obtained in the various conditions indicated (aa: arachidonic acid: 10 μM, Spadin: 1[…]μM, Fluoxetine: 20 μM). Neurons were recorded in the whole-cell configuration of the patch-clamp technique. In voltage-clamp, ramps of potential from −90 mV to 70 mV were applied every 10 sec. The % variation of the current amplitude was always measured at −50 mV. The currents were recorded in response to such ramps in control conditions and in the presence of a cocktail of potassium blockers suitable to isolate the TREK currents (10 mM tetraethyl ammonium (TEA), 3 mM 4-aminopyridine (4-AP), 50 nM charybdotoxin, 10 μM glibenclamide, 100 nM apamin). […] The blocks were reversible. C, Time course of spadin and fluoxetine effects. Applications are indicated by the horizontal bars.
Cortical neurons were prepared from 14 old mouse embryos whereas hippocampal neurons were prepared from new born mice. Briefly, dissected brain areas were dissociated and neurons were plated on polylysine-treated 35 or 60 mm dishes and maintained in culture in Neurobasal medium supplemented with B27, Glutamax and antibiotics for 2 to 3 weeks before to be used for electrophsysiological or biochemical experiments.

mice [4] = assay: Tail Suspension Test (TST); assay type: in vivo, mouse; conditions: subchronic, 4 days; spadin i.v. 10^-6 M, fluoxetine 3 mg/kg
Experimental: Mice were suspended by the tail. […] The immobility time was recorded during a 6 min test session.

mice [5] = assay: Corticosterone assay after tube restraint stress; assay type: in vivo, mouse; conditions: 30 min after 10 min tube restraint; spadin i.p. 10^-5 M
Experimental: Mice were individually housed for at least 12 hours before blood sample collection. Serum samples, collected in the morning were obtained by retroorbital puncture before and 30 min after the end of a 10-min tube restraint. Levels of corticosterone were measured by radioimmunoassay using a commercially available kit (MP Biomedicals).

mice [6] = assay: Novelty-Suppressed Feeding test (NSF); assay type: in vivo, mouse; conditions: 4 days; spadin i.v. 10^-6 M, fluoxetine i.p. 3 mg/kg
Experimental: NSF paradigm is a conflict test that elicits competing motivations: the drive to eat and the fear of venturing into the center of a bright arena. Latency to begin eating is used as an index of anxiety- and depression-like behavior. After 4 day treatment (saline or spadin, i.v.) and 24 hours food-deprivation, mice were presented with a food pellet placed in the center of a brightly plastic box (50×50×20 cm). Latency to begin eating was measured as previously described.

TREK-1 [7] = biological target: T1, TREK-1; assay: Whole-cell patch-clamp on CA3 pyramidal neurons in hippocampus brain slices; assay type: cell-based; parameters: a cellular network that endogenously expresses both TREK-1 and NTSR3/Sortilin; from tissue; host or cells: mouse hippocampal brain slices, CA3 pyramidal neurons; conditions: wild-type CA3 neurons, no aa
TREK-1 [8] = biological target: T1, TREK-1; assay: Whole-cell patch-clamp on TREK-1 transfected COS-7 cells; assay type: cell-based; parameters: GFP; expressed in transfected cells; host or cells: COS-7 (DEAE-dextran transfection); conditions: after 90 sec of application
Experimental: All electrophysiological experiments were done on COS-7 cells seeded at a density of 20,000 cells/35-mm dish 24 h before transfection. Cells were transfected by the classical DEAE-dextran method with TREK-1-GFP plasmids (0.1 μg/μL). Cells were visualized 48-72 h after transfection using fluorescence.
The whole-cell patch-clamp technique was used to evaluate TREK-1 potassium channel current by using a RK 400 patch-clamp amplifier (Axon Instruments, U.S.A.), as previously described. Currents were lowpass filtered at 3 kHz, digitized at 10 kHz using a 12-bit analog-to-digital converter. […] The bath solution contained (in mM): 150 NaCl, 5 KCl, 3 MgCl2, 1 CaCl2, and 10 HEPES, adjusted to pH 7.4 with NaOH; the patch pipette solution contained (in mM): 155 KCl, 3 MgCl2, 5 EGTA, and 10 HEPES, adjusted to pH 7.2 with KOH. Cells were clamped at −80 mV and voltage changes were either applied by ramp (from −100 to 50 mV, 1 s in duration) or by step (from −100 to 40 mV, 1.5 s in duration). Cells were continuously superfused with a microperfusion system. The pipette capacitance was not subtracted from total membrane capacitance and there was no leak substraction. All experiments were done at room temperature (21° C. to 22° C.) and in the presence of a cocktail of potassium channel inhibitors (K^+ blockers: 10 mM tetraethyl ammonium (TEA), 3 mM 4-aminopyridine (4-AP), 50 nM charybdotoxin, 10 μM glibenclamide, 100 nM apamin).
Pclamp software was used to analyze currents recorded in the whole-cell mode measured at 0 mV. Results are expressed as means±SD. To obtain the IC50 value for dose-dependent inhibition, experimental data were fitted with a standard sigmoidal function.

TREK-1 [9] = biological target: T1, TREK-1; assay: Competition with 125I-spadin for binding to TREK-1 transfected COS-7 cell homogenates; parameters: expressed in transfected cells; host or cells: COS-7 (DEAE-dextran transfection); conditions: TREK-1 transfected COS-7 homogenates, read-out: affinity for TREK-1
Experimental: Experiments were performed using COS-7 cells (10^6 cells per diameter 100 dish) transfected with TREK-1 (2 μg/dish) in the presence or in the absence of NTSR3/sortilin (2 μg/dish) using the DEAE-dextran protocol.
Incubations were terminated by addition of 2 ml of ice-cold binding buffer followed by filtration through cellulose acetate filters (Sartorius, Göttingen, Germany) and washing twice with 2 ml of ice-cold buffer. Radioactivity on filters was counted with a gamma-counter.

[10] = biological target: NTSR3/Sortilin (endogenous, C13NJ microglial cell line); assay: competition with 0.2 nM 125I-NT on C13NJ cell homogenates, filtration
Sequence of NTSR3/Sortilin (endogenous, C13NJ microglial cell line) (Q99523 78-831): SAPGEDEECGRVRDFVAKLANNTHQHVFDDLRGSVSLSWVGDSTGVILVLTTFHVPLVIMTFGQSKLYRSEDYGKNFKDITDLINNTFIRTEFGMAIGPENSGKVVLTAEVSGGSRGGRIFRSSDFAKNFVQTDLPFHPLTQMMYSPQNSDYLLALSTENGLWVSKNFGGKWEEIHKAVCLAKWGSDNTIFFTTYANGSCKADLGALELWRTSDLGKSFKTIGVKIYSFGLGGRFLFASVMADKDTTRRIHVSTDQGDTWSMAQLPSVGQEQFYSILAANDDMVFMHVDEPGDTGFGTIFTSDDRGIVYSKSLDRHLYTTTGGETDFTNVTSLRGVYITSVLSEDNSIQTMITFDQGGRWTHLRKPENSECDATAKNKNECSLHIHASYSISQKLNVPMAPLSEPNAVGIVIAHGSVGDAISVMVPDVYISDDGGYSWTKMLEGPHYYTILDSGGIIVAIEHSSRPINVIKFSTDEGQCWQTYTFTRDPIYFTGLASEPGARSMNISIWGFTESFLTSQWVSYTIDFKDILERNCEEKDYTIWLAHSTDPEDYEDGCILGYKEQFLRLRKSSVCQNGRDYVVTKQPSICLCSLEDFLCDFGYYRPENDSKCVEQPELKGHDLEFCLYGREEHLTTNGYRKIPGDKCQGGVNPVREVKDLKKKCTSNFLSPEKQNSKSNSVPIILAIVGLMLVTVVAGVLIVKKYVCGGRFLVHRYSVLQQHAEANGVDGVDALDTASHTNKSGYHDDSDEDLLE

[11] = biological target: TREK-1 channel (expressed by transfection in COS-7 cells); assay: competition with 0.2 nM 125I-spadin on TREK-1 transfected COS-7 cell homogenates, filtration
Sequence of TREK-1 channel (expressed by transfection in COS-7 cells) (O95069 whole entry): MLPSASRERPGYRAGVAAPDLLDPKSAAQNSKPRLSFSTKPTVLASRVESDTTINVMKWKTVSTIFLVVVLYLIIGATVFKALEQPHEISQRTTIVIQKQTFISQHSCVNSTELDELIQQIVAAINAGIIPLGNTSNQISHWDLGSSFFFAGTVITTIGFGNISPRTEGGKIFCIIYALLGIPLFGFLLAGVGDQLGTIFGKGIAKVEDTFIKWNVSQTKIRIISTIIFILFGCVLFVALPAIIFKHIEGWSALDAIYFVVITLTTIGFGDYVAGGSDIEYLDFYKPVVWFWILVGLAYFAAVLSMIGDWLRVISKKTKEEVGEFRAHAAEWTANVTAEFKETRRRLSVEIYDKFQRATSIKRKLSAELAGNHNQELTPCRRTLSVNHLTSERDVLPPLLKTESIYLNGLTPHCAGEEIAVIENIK

[12] = biological target: NTSR3/Sortilin (endogenous, C13NJ microglial cell line); assay: cell-based or functional assay
[13] = biological target: TREK-1 channel (expressed by transfection in COS-7 cells); assay: cell-based or functional assay

## CNCCC(Oc1ccc(C(F)(F)F)cc1)c1ccccc1 (stereo not shown) [fluoxetine, Fluoxetine, reference compound]
[1]; 4-day treatment, spadin i.p. 10^-5 M
  number of BrdU-positive cells in the SGZ versus saline: had no effect
[1]; 15 days
  number of BrdU-positive cells versus saline: significant increase
Mice [2]; chronic, 15 days, spadin 10^-6 M, fluoxetine 1 mg/kg
  reduction of time of immobility: around 30%
Mice [2]; subchronic, 4 days, spadin i.v. 10^-6 M, fluoxetine 3 mg/kg
  reduction of time spent immobile: had no effect; also recorded: without effect
TREK-1 [3]
  block of arachidonic acid evoked current (putative TREK current): fully blocked
Mice [4]
  reduction of time spent immobile: had no effect; also recorded: without effect
Mice [5]
  reduction of stress-induced increase in corticosterone levels versus saline: 59.1%
Mice [6]
  latency to feed versus saline: had no effect
TREK-1 [7]
  inhibition of the current recorded in presence of potassium blockers, substance alone: 13.0 ± 3.8%

## QDRLDAPPPPAAPLPR [N-terminal fragment Gln1-Arg16, reference compound]
TREK-1 [8]
  inhibition of current increase induced by 10 μM aa: unable to inhibit
TREK-1 [9]
  Kd: 1000 nM

## APLPRWSGPIGVSWGLR [spadin]
[10]
  affinity: 8 nM
[11]
  affinity: 10 nM
[12]
  C13NJ cell migration induced by 10 nM NT in the presence of 1 µM spadin (% of migration with 10% FCS): 6.2%
[13]
  IC50 of dose-dependent inhibition of TREK-1 current at 0 mV: 70.7 nM
  block of arachidonic acid-stimulated TREK-1 current (whole-cell patch clamp, transfected COS-7 cells, 100 nM spadin): 63%
